Legend:
[1] = test system: RKOp27 colon adenocarcinoma cells arrested by expression of ectopic p27Klp1; assay: Alamar Blue cell viability assay, cell cycle specific mode of action, RKOp27 cells arrested by Ponasterone A-induced p27 expression; type: cell-based; conditions: Homo sapiens, cells arrested by p27 induced with 10 μM Ponasterone A, 72 hours incubation, 16000 cells per well, read-out: IC50 RKO p27 induced
Procedure: To determine the cell cycle specific mode of action, subclones of RKO colon adenocarcinoma cells (RKOp27 or RKOp21 as described by Schmidt et al. in Oncogene 19, 2423-2429; 2000) are seeded into 96 well flat bottom plates at a density of 16000 cells per well in a volume of 50 μl per well in DMEM growth medium with 10% FCS containing 10 μM Ponasterone A. 24 hours after seeding the 50 μl each of the compound dilutions in DMEM medium are added into each well of the 96 Well plate. Each compound dilution is tested as quadruplicates. Wells containing untreated control cells are filled with 50 μl DMEM medium containing 1% DMSO. The cells are then incubated with the substances for 72 hours at 37° C. in a humidified atmosphere containing 5% carbon dioxide. To determine the viability of the cells, 10 μl of an Alamar Blue solution (Biosource) are added and the fluorescence was measured at an extinction of 544 nm and an emission of 590 nm. For the calculation of the cell viability the emission value from untreated cells is set as 100% viability and the emission rates of treated cells are set in relation to the values of untreated cells. Viabilities are expressed as % values. Viability is compared of proliferating cells grown in the absence of the inducer Ponasterone A, versus viability of cells arrested by the expression of ectopic p27Klp1 induced by Ponasterone A. The data of this experimental setting are summarized in table A (2nd column).

[2] = test system: RKO (RKOp27) human colon adenocarcinoma cells; assay: Alamar Blue cell viability assay, anti-proliferative/cytotoxic activity, proliferating (uninduced) RKOp27 cells; type: cell-based; conditions: no Ponasterone A, 72 hours incubation, 4000 cells per well, read-out: IC50 RKO p27 uninduced
Procedure: The anti-proliferative/cytotoxic activity of the compounds described herein, can be tested on subclones of RKO (RKOp27) human colon adenocarcinoma cells (Schmidt et al., Oncogene 19, 2423-2429; 2000) using the Alamar Blue cell viability assay (described in O'Brien et al. Eur J Biochem 267, 5421-5426, 2000). The compounds are dissolved as 20 mM solutions in dimethylsulfoxide (DMSO) and subsequently diluted in semi-logarithmic steps. DMSO dilutions are further diluted 1:100 into Dulbecco's modified Eagle's medium (DMEM) containing 10% fetal calf serum to a final concentration twice as much as the final concentration in the test. RKO subclones are seeded into 96 well flat bottom plates at a density of 4000 cells per well in a volume of 50 μl per well. 24 hours after seeding the 50 μl each of the compound dilutions in DMEM medium are added into each well of the 96 Well plate. Each compound dilution is tested as quadruplicates. Wells containing untreated control cells are filled with 50 μl DMEM medium containing 1% DMSO. The cells are then incubated with the substances for 72 hours at 37° C. in a humified atmosphere containing 5% carbon dioxide. To determine the viability of the cells, 10 μl of an Alamar Blue solution (Biosource) are added and the fluorescence was measured at an extinction of 544 nm and an emission of 590 nm. For the calculation of the cell viability the emission value from untreated cells is set as 100% viability and the emission rates of treated cells were set in relation to the values of untreated cells. Viabilities are expressed as % values.
The corresponding IC50 values of the compounds for anti-proliferative/cytotoxic activity are determined from the concentration-effect curves.
Representative IC50 values for anti-proliferation/cytotoxicity determined in the aforementioned assay are described in the table A (1st column), in which the numbers of the compound correspond to the numbers of the examples.

IC50 [1] [nM] | Compound | IC50 [2] [nM]
> 100000 | CCOC(=O)N1CCc2c(sc(NC(=O)c3ccc4c(c3)OCC4)c2C#N)C1 [Compound 12] | ≤ 3000
> 100000 | CCCC(=O)N1CCc2c(sc(NC(=O)c3cccnc3)c2C#N)C1 [Compound 14, N-(6-Butanoyl-3-cyano-4,5,6,7-tetrahydro-thieno[2,3-c]pyridin-2-yl)-nicotinyl Amide] | ≤ 3000
> 100000 | CCOC(=O)N1CCc2c(sc(NC(=O)c3cccnc3)c2C#N)C1 [Compound 1, N-(6-ethoxycarbonyl-3-cyano-4,5,6,7-tetrahydro-thieno[2,3-c]pyridin-2-yl)-nicotinyl Amide] | 500
> 100000 | CCOC(=O)N1CCc2c(sc(NC(=O)c3cc4ccccc4s3)c2C#N)C1 [Compound 8, 2-[(1-Benzo[b]thiophen-2-yl-methanoyl)-amino]-3-cyano-4,7-dihydro-5H-thieno[2,3-c]pyridine-6-carboxylic Acid Ethyl Ester] | 5000
> 100000 | CCSC(=O)N1CCc2c(sc(NC(=O)c3cccnc3)c2C#N)C1 [Compound 16, 3-Cyano-2-[(1-pyridin-3-yl-methanoyl)-amino]-4,7-dihydro-5H-thieno[2,3-c]pyridine-6-carbothioic Acid S-ethyl Ester] | ≤ 3000
> 100000 | CCOC(=O)N1CCc2c(sc(NC(=O)c3c(C)noc3-c3ccccc3)c2C#N)C1 [Compound 5, 3-Cyano-2-{[1-(3-methyl-5-phenyl-isoxazol-4-yl)-methanoyl]-amino}-4,7-dihydro-5H-thieno [2,3-c]pyridine-6-carboxylic Acid Ethyl Ester] | 2000
> 100000 | CCOC(=O)N1CCc2c(sc(NC(=O)c3ccc(C)s3)c2C#N)C1 [Compound 10, 3-Cyano-2-{[1-(5-methyl-thiophen-2-yl)-methanoyl]-amino}-4,7-dihydro-5H-thieno[2,3-c]pyridine-6-carboxylic Acid Ethyl Ester] | 200
> 100000 | CCOC(=O)N1CCc2c(sc(NC(=O)C3=Cc4ccccc4OC3)c2C#N)C1 [Compound 6, 2-[(1-2H-Chromen-3-yl-methanoyl)-amino]-3-cyano-4,7-dihydro-5H-thieno[2,3-c]pyridine-6-carboxylic Acid Ethyl Ester] | 2000
> 100000 | Cc1ncsc1CCOC(=O)N1CCc2c(sc(NC(=O)c3cccnc3)c2C#N)C1 [Compound 17, 3-Cyano-2-[(1-Pyridin-3-yl-methanoyl)-amino]-4,7-dihydro-5H-thieno[2,3-c]pyridine-6-carboxylic Acid 2-(4-methyl-thiazol-5-yl)-ethyl Ester] | ≤ 3000
> 100000 | CCOC(=O)N1CCc2c(sc(NC(=O)c3cccs3)c2C#N)C1 [Compound 7, 3-Cyano-2-[(1-thiophen-2-yl-methanoyl)-amino]-4,7-dihydro-5H-thieno[2,3-c]pyridine-6-carboxylic Acid Ethyl Ester] | 2000
